# Results as given in patent US6051589A, “Diphenyloxazoline derivatives” (Bayer Aktiengesellschaft, priority 1994, dated 2000).
# Read-outs that look alike come from different tables or passages of the source.
# Key:
# [1] = partition coefficient log p (octanol/water); type: physicochemical
# [2] = tested on: red spider mite Tetranychus urticae; test: Tetranychus Test (OP resistant/dipping treatment); type: in vivo; details: after 7 days, concentration of active compound 0.01%, all developmental stages, bean plants, OP resistant
# Experimental: Tetranychus Test (OP resistant/dipping treatment)
# Solvent: 7 parts by weight of dimethylformamide
# (§1) Emulsifier: 1 part by weight of alkylaryl polyglycol ether
# To produce a suitable preparation of active compound, 1 part by weight of active compound is mixed with the stated amount of solvent and the stated amount of emulsifier, and the concentrate is diluted with emulsifier-containing water to the desired concentrations.
# Bean plants (Phaseolus vulgaris) which are heavily infested with all developmental stages of the red spider mite Tetranychus urticae are dipped in a preparation of the active compound of the desired concentration.
# After the desired time, the action in percent is determined. 100% means that all the spider mites have been killed, 0% means that none of the spider mites have been killed.
# [3] = tested on: mustard beetle larvae (Phaedon cochleariae); test: Phaedon Larvae Test; type: in vivo; details: concentration of active compound 0.1%, cabbage leaves, read-out: degree of mortality
# Experimental: Solvent: 3 parts by weight of dimethylformamide
# as §1
# To produce a suitable preparation of active compound, 1 part by weight of active compound is mixed with the stated amount of solvent and the stated amount of emulsifier, and the concentrate is diluted with water to the desired concentration.
# After the desired time, the destruction in % is determined. 100% means that all the beetle larvae have been killed; 0% means that none of the beetle larvae have been killed.
"logD ([1]; pH 7.5, read-out: log p)",SMILES,degree of mortality [2] [%],"logD ([1]; pH: 7.4, read-out: partition coefficient log p (octanol/water))",mortality at 0.1 % [3] [%]
–,"CC(C)(C)c1ccc(C2COC(c3c(F)c(F)cc(F)c3F)=N2)cc1 (stereo not shown) [Example 1, 4-(4-tert-butylphenyl)-2-(2,3,5,6-tetrafluorophenyl)-1,3-oxazoline]",98,4.7,65
4.78,CC(C)(C)c1ccc(C2COC(c3cc(F)c(F)c(F)c3F)=N2)cc1 (stereo not shown) [Example 4],–,–,–
5.65,CC(C)(C)c1ccc(C2COC(c3cc(F)c(Cl)cc3Cl)=N2)cc1 (stereo not shown) [Example 6],–,–,–
3.69,Cc1ccc(C2COC(c3c(F)c(F)cc(F)c3F)=N2)cc1 (stereo not shown) [Example 14],–,–,–
5.35,CC(C)Cc1ccc(C2COC(c3c(F)c(F)cc(F)c3F)=N2)cc1 (stereo not shown) [Example 12],–,–,–
4.45,CC(C)(C)c1ccc(C2COC(c3c(F)ccc(F)c3F)=N2)cc1 (stereo not shown) [Example 8],–,–,–
5.13,CC(C)(C)c1ccc(C2COC(c3c(F)cc(C(F)(F)F)cc3F)=N2)cc1 (stereo not shown) [Example 9],–,–,–
4.43,CC(C)(C)c1ccc(C2COC(c3c(F)cc(F)cc3F)=N2)cc1 (stereo not shown) [Example 7],–,–,–
5.12,CC(C)(C)c1ccc(C2COC(c3c(F)c(F)c(F)c(F)c3F)=N2)cc1 (stereo not shown) [Example 3],–,–,–

SMILES,"logD ([1]; pH 7.5, read-out: log p)",degree of mortality [2] [%],"logD ([1]; pH: 7.4, read-out: partition coefficient log p (octanol/water))",mortality at 0.1 % [3] [%]
CC(C)(C)c1ccc(C2COC(c3cc(F)c(F)cc3F)=N2)cc1 (stereo not shown) [Example 5],4.78,98,–,–
COc1c(F)cc(F)c(F)c1C1=NC(c2ccc(C(C)(C)C)cc2)CO1 (stereo not shown) [Example 2],4.59,98,–,65
